This note sets out measurements from ChEMBL document CHEMBL1133155, “Carbonic anhydrase inhibitors: topical sulfonamide antiglaucoma agents incorporating secondary amine moieties” (Bioorg Med Chem Lett, 2000).

In general, Ki refers to a measure of affinity in units of concentration, obtained from inhibition or displacement. Usually logD stands for lipophilicity at a set pH, counting ionised and neutral species. Read a high logD as higher lipophilicity. As a reminder, the solubility is the dissolved amount per volume that the medium holds. Read a high solubility as much dissolved substance.

The target in one data set is Carbonic anhydrase 1 (Homo sapiens, UniProt P00915).
The target of another data set is T1, Carbonic anhydrase 4 (Bos taurus, UniProt Q95323).
T1 sequence (Q95323 whole entry): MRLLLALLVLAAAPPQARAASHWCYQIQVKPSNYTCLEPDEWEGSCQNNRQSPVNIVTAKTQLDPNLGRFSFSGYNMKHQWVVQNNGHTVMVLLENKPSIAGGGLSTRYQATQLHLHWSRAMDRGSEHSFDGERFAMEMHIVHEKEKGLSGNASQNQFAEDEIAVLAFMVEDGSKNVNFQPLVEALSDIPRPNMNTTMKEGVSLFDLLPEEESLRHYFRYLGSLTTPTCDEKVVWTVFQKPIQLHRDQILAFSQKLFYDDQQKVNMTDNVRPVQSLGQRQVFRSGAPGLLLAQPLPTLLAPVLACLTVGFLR

For the next data set, the target named is Carbonic anhydrase 2 (Homo sapiens, UniProt P00918).
For data set [1] the following is noted: octanol/water.
Description: Partition coefficient (logD) (chloroform/buffer)
The species entered for data set [2] is Oryctolagus cuniculus.
Description: Reduction of intraocular pressure in normotensive rabbits after treatment with 50 uL of compound (as HCl salt) at pH 5.5 in eye after 0 min from administration, to that of controls
The species named for data set [3] is Oryctolagus cuniculus. The source holds these as a separate data set.
Description: Reduction of intraocular pressure in normotensive rabbits after treatment with 50 uL of compound (as HCl salt) at pH 5.5 in eye after 240 min from administration, to that of controls
The species entered for data set [4] is Oryctolagus cuniculus. This is another data set of the same source.
Description: Reduction of intraocular pressure in normotensive rabbits after treatment with 50 uL of compound (as HCl salt) at pH 5.5 in eye after 30 min from administration, to that of controls
For data set [5], the species on record is Oryctolagus cuniculus. This is another data set of the same source.
Description: Reduction of intraocular pressure in normotensive rabbits after treatment with 50 uL of compound (as HCl salt) at pH 5.5 in eye after 60 min from administration, to that of controls
Data set [6] is filed under the species Oryctolagus cuniculus. The source holds these as a separate data set.
Description: Reduction of intraocular pressure in normotensive rabbits after treatment with 50 uL of compound (as HCl salt) at pH 5.5 in eye after 90 min from administration, to that of controls
For data set [7], the species on record is Oryctolagus cuniculus. This is another data set of the same source.
Description: In vitro transcorneal accession rate (intact cornea) of compound was determined
The species entered for data set [8] is Oryctolagus cuniculus. The source holds these as a separate data set.
Description: In vitro transcorneal accession rate (without epithelium) of compound was determined
The nature of the next data set: physchem. The settings on record: buffer, pH 7.4.

Each structure is given as a SMILES string. In brackets after ≈: the same amount, converted by molar mass.

Chain of Carbonic anhydrase 1 (P00915 whole entry): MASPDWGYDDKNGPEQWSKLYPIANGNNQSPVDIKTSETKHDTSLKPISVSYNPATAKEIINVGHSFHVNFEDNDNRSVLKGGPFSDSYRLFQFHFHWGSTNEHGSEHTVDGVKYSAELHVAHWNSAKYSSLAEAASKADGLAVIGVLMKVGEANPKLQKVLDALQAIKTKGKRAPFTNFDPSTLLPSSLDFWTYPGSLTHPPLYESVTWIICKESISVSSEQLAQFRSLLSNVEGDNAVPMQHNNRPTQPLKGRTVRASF
Description for Carbonic anhydrase 1: Inhibition of human cloned Carbonic anhydrase I
Description for Carbonic anhydrase 2: Inhibition of human cloned Carbonic anhydrase II
Description for Carbonic anhydrase 4: Inhibition of bovine Carbonic anhydrase IV determined by esterase method
Description for physchem: Solubility (hydrochloride salt) in buffer at pH 7.4 and at 25 degree celsius.

Turning to `NS(=O)(=O)c1ccccc1NCc1cc(=O)oc2cc(Cl)ccc12`, the Ki was found to be 21500 nM on Carbonic anhydrase 1, 300 nM at Carbonic anhydrase 4 and 270 nM on Carbonic anhydrase 2.

Regarding `Cn1nc(S(N)(=O)=O)s/c1=N\S(=O)(=O)c1ccc(NCc2cc(=O)oc3cc(Cl)ccc23)cc1`, the inhibition constant (Ki) on Carbonic anhydrase 1 is 1 nM; at Carbonic anhydrase 4, 0.6 nM; on Carbonic anhydrase 2, 0.5 nM.

Take `NS(=O)(=O)c1ccc(NCc2cc(=O)oc3cc(Cl)ccc23)c(Cl)c1`: the Ki was determined as 520 nM at Carbonic anhydrase 1, 96 nM at Carbonic anhydrase 4 and 45 nM at Carbonic anhydrase 2.

For `NS(=O)(=O)c1nnc(NC(=O)CCNCc2cc(=O)oc3cc(Cl)ccc23)s1`, the inhibition constant (Ki) is 12 nM on Carbonic anhydrase 1, 16 nM at Carbonic anhydrase 4 and 2 nM on Carbonic anhydrase 2. This molecule also gave a logD in data set [1] of 0.683. Besides, the “Delta IOP” value is listed as 0 mmHg in the data set listed under Oryctolagus cuniculus [2]; 3.4 mmHg in the data set filed under Oryctolagus cuniculus [3]; 5.1 mmHg in the data set filed under Oryctolagus cuniculus [4]; 8.3 mmHg in the data set filed under Oryctolagus cuniculus [5]; 7.2 mmHg in the data set filed under Oryctolagus cuniculus [6]. The Kin was determined as 3300 h⁻¹ in the data set listed under Oryctolagus cuniculus [7] and 8400 h⁻¹ in the data set listed under Oryctolagus cuniculus [8]. The same molecule yielded a solubility in the data set “physchem” of 62 mM (≈ 27.5 mg/mL).

`NS(=O)(=O)c1nnc(NN2C(=O)c3cccnc3C2=O)s1`: the values for the inhibition constant Ki at Carbonic anhydrase 1, at Carbonic anhydrase 4 and at Carbonic anhydrase 2 were 39 nM, 18 nM and 8 nM, respectively. The same molecule gave a logD in data set [1] of 0.315. Besides, the figures for the Kin in the data set filed under Oryctolagus cuniculus [7] and in the data set listed under Oryctolagus cuniculus [8] were 2500 h⁻¹ and 7600 h⁻¹, respectively. Also, in the data set “physchem”, the solubility stood at 72 mM (≈ 23.5 mg/mL).

As to `NS(=O)(=O)c1cc(S(N)(=O)=O)c(NCc2cc(=O)oc3cc(Cl)ccc23)cc1Cl`, the values for the Ki at Carbonic anhydrase 1, at Carbonic anhydrase 4 and on Carbonic anhydrase 2 were 400 nM, 50 nM and 12 nM, respectively.

As to `NS(=O)(=O)c1nnc(NS(=O)(=O)c2ccc(NCc3cc(=O)oc4cc(Cl)ccc34)cc2)s1`, the inhibition constant Ki at Carbonic anhydrase 1 was determined as 5 nM; on Carbonic anhydrase 4, 4 nM; on Carbonic anhydrase 2, 2 nM.

Consider `Cn1nc(S(N)(=O)=O)s/c1=N\Cc1cc(=O)oc2cc(Cl)ccc12`, for which the Ki at Carbonic anhydrase 1 amounted to 29 nM; at Carbonic anhydrase 4, 16 nM; at Carbonic anhydrase 2, 6 nM. Besides, in the data set listed under Oryctolagus cuniculus [5], the “Delta IOP” value is reported as 6 mmHg.

Take `NS(=O)(=O)c1nnc(NCc2cc(=O)oc3cc(Cl)ccc23)s1`: the results for the Ki at Carbonic anhydrase 1, at Carbonic anhydrase 4 and at Carbonic anhydrase 2 were 36 nM, 15 nM and 7 nM, respectively. This molecule also yielded a logD in [1] of 0.558. The “Delta IOP” value was determined as 0 mmHg in the data set filed under Oryctolagus cuniculus [2]; 1.5 mmHg in the data set listed under Oryctolagus cuniculus [3]; 3.9 mmHg in the data set filed under Oryctolagus cuniculus [4]; 5.8 mmHg in the data set filed under Oryctolagus cuniculus [5]; 4.9 mmHg in the data set listed under Oryctolagus cuniculus [6]. Further, the Kin is 2800 h⁻¹ in the data set filed under Oryctolagus cuniculus [7] and 6500 h⁻¹ in the data set listed under Oryctolagus cuniculus [8]. Further, in the data set “physchem”, the concentration in solution (solubility) was 54 mM (≈ 20.1 mg/mL).

For the molecule `NS(=O)(=O)c1cccc(NS(=O)(=O)c2ccc(NCc3cc(=O)oc4cc(Cl)ccc34)cc2)c1`, the Ki on Carbonic anhydrase 1 amounted to 36 nM; on Carbonic anhydrase 4, 30 nM; on Carbonic anhydrase 2, 6 nM.

Take `NS(=O)(=O)c1ccc(CNCc2cc(=O)oc3cc(Cl)ccc23)cc1`: the values for the inhibition constant Ki at Carbonic anhydrase 1, on Carbonic anhydrase 4 and on Carbonic anhydrase 2 were 1060 nM, 240 nM and 145 nM, respectively.

For `NS(=O)(=O)c1ccc(NNCc2cc(=O)oc3cc(Cl)ccc23)cc1`, the Ki at Carbonic anhydrase 1 was determined as 21800 nM; on Carbonic anhydrase 4, 320 nM; at Carbonic anhydrase 2 it was 275 nM.

For `NS(=O)(=O)c1ccc(NS(=O)(=O)c2ccc(NCc3cc(=O)oc4cc(Cl)ccc34)cc2)cc1`, the figures for the Ki on Carbonic anhydrase 1, at Carbonic anhydrase 4 and at Carbonic anhydrase 2 were 33 nM, 14 nM and 3 nM, respectively.

Take `NS(=O)(=O)c1ccc(NCc2cc(=O)oc3cc(Cl)ccc23)c(Br)c1`: the inhibitory constant (Ki) on Carbonic anhydrase 1 is 600 nM; at Carbonic anhydrase 4, 78 nM; on Carbonic anhydrase 2, 33 nM.

Turning to `NS(=O)(=O)c1ccc(NCc2cc(=O)oc3cc(Cl)ccc23)c(I)c1`, the inhibitory constant (Ki) on Carbonic anhydrase 1 was determined as 610 nM; on Carbonic anhydrase 4 it was 70 nM; at Carbonic anhydrase 2, 36 nM.

For `CCN(Cc1cc(=O)oc2cc(Cl)ccc12)C1CC(C)S(=O)(=O)c2sc(S(N)(=O)=O)cc21` (stereo not given), the Ki on Carbonic anhydrase 1 came to 18000 nM; at Carbonic anhydrase 4 it was 25 nM; on Carbonic anhydrase 2, 8 nM. The molecule further registered a logD in data set [1] of 1.762. Also, the “Delta IOP” value is 0 mmHg in the data set listed under Oryctolagus cuniculus [2]; 0 mmHg in the data set filed under Oryctolagus cuniculus [3]; 1.9 mmHg in the data set filed under Oryctolagus cuniculus [4]; 3.7 mmHg in the data set filed under Oryctolagus cuniculus [5]; 1.6 mmHg in the data set filed under Oryctolagus cuniculus [6]. The results for the Kin in the data set listed under Oryctolagus cuniculus [7] and in the data set filed under Oryctolagus cuniculus [8] were 2100 h⁻¹ and 5900 h⁻¹, respectively. The molecule further came in with a solubility in “physchem” of 41 mM (≈ 21.2 mg/mL).

For `NS(=O)(=O)c1ccc(NCc2cc(=O)oc3cc(Cl)ccc23)cc1`, the results for the Ki on Carbonic anhydrase 1, on Carbonic anhydrase 4 and on Carbonic anhydrase 2 were 15000 nM, 170 nM and 125 nM, respectively.

Consider `NS(=O)(=O)c1ccc(CCNCc2cc(=O)oc3cc(Cl)ccc23)cc1`, for which the inhibition constant (Ki) came to 950 nM on Carbonic anhydrase 1, 225 nM at Carbonic anhydrase 4 and 120 nM on Carbonic anhydrase 2.

Turning to `NS(=O)(=O)c1ccc(NCc2cc(=O)oc3cc(Cl)ccc23)c(F)c1`, the Ki stood at 540 nM at Carbonic anhydrase 1, 110 nM on Carbonic anhydrase 4 and 30 nM on Carbonic anhydrase 2.

For `NS(=O)(=O)c1cccc(NCc2cc(=O)oc3cc(Cl)ccc23)c1`, the inhibition constant Ki at Carbonic anhydrase 1 turned out to be 20000 nM; on Carbonic anhydrase 4 it was 280 nM; at Carbonic anhydrase 2 it was 250 nM.

For `NS(=O)(=O)c1cc(S(N)(=O)=O)c(NCc2cc(=O)oc3cc(Cl)ccc23)c(Cl)c1Cl`, the Ki on Carbonic anhydrase 1 stood at 500 nM; on Carbonic anhydrase 4, 49 nM; at Carbonic anhydrase 2, 18 nM.
